Measured values from US12568972B2, “Pyridazinol compounds and derivatives, preparation methods, herbicidal compositions and applications thereof” (Qingdao Kingagroot Chemical Compound Co., Ltd., priority 2018, dated 2026).

Tests used:
Test in all cases: Post-emergence test, weed control effect
Assay type in all cases: in vivo
Conditions in all cases: after 3 weeks
Amaranthus retroflexus = tested on: Amaranthus retroflexus
Outline: (§1)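 Seeds are sown in soil pots and raised in the greenhouse until the 2-3 leaf stage. Plants are then sprayed with compound dissolved in acetone with Tween-80, diluted in water and supplemented with 80% vegetable oil methyl ester synergist at 1500 g/ha, and fresh weight inhibition is rated 0-10 three weeks later.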

Chenopodiaceae = tested on: Chenopodiaceae
Outline: as §1

Rorippa indica = tested on: Rorippa indica
Outline: as §1

Veronica polita = tested on: Veronica polita
Outline: as §1

Oc1cc(C(F)(F)F)nnc1-c1cc(F)cc(/C=C/Cl)c1 [Compound 169]
10: weed control effect (activity level), Amaranthus retroflexus (Amaranthus retroflexus; dose 2000 g/ha) | weed control effect (activity level), Chenopodiaceae (Chenopodiaceae; dose 2000 g/ha) | weed control effect (activity level), Rorippa indica (Rorippa indica; dose 2000 g/ha) | weed control effect (activity level), Veronica polita (Veronica polita; dose 2000 g/ha)

Oc1cc(C(F)(F)F)nnc1-c1cc(Cl)cnc1Cl [Compound 992]
10: weed control effect (activity level), Amaranthus retroflexus (Amaranthus retroflexus; Dose 3000 g/ha) | weed control effect (activity level), Chenopodiaceae (Chenopodiaceae; Dose 3000 g/ha) | weed control effect (activity level), Rorippa indica (Rorippa indica; Dose 3000 g/ha) | weed control effect (activity level), Veronica polita (Veronica polita; Dose 3000 g/ha)

O=[N+]([O-])c1ccc(S(=O)(=O)Oc2cc(C(F)(F)F)nnc2-c2ccc(F)c(F)c2)cc1 [Compound 1-135]
10: weed control effect, Amaranthus retroflexus (activity level) (Amaranthus retroflexus; Dose 3000 g/ha) | weed control effect, Chenopodiaceae (activity level) (Chenopodiaceae; Dose 3000 g/ha) | weed control effect, Rorippa indica (activity level) (Rorippa indica; Dose 3000 g/ha) | weed control effect, Veronica polita (activity level) (Veronica polita; Dose 3000 g/ha)

CCCCCC(=O)Oc1cc(C(F)(F)F)nnc1-c1ccc(C#N)cc1 [Compound 1-10]
10: weed control effect, Amaranthus retroflexus (activity level) (Amaranthus retroflexus; Dose 3000 g/ha) | weed control effect, Chenopodiaceae (activity level) (Chenopodiaceae; Dose 3000 g/ha) | weed control effect, Rorippa indica (activity level) (Rorippa indica; Dose 3000 g/ha) | weed control effect, Veronica polita (activity level) (Veronica polita; Dose 3000 g/ha)

Cn1nc(C#N)cc1-c1nnc(C(F)(F)F)cc1O [Compound 791]
10: weed control effect (activity level), Amaranthus retroflexus (Amaranthus retroflexus; Dose 3000 g/ha) | weed control effect (activity level), Chenopodiaceae (Chenopodiaceae; Dose 3000 g/ha) | weed control effect (activity level), Rorippa indica (Rorippa indica; Dose 3000 g/ha) | weed control effect (activity level), Veronica polita (Veronica polita; Dose 3000 g/ha)

Cn1nc(F)cc1-c1nnc(C(F)(F)F)cc1O [Compound 775]
10: weed control effect (activity level), Amaranthus retroflexus (Amaranthus retroflexus; Dose 3000 g/ha) | weed control effect (activity level), Chenopodiaceae (Chenopodiaceae; Dose 3000 g/ha) | weed control effect (activity level), Rorippa indica (Rorippa indica; Dose 3000 g/ha) | weed control effect (activity level), Veronica polita (Veronica polita; Dose 3000 g/ha)

Cn1ccc2ccc(S(=O)(=O)Oc3cc(C(F)(F)F)nnc3-c3ccc(F)c(F)c3)cc21 [Compound 1-152]
10: weed control effect, Amaranthus retroflexus (activity level) (Amaranthus retroflexus; Dose 3000 g/ha) | weed control effect, Chenopodiaceae (activity level) (Chenopodiaceae; Dose 3000 g/ha) | weed control effect, Rorippa indica (activity level) (Rorippa indica; Dose 3000 g/ha) | weed control effect, Veronica polita (activity level) (Veronica polita; Dose 3000 g/ha)

Cn1ncc(Br)c1-c1nnc(C(F)(F)F)cc1O [Compound 806]
10: weed control effect (activity level), Amaranthus retroflexus (Amaranthus retroflexus; Dose 3000 g/ha) | weed control effect (activity level), Chenopodiaceae (Chenopodiaceae; Dose 3000 g/ha) | weed control effect (activity level), Rorippa indica (Rorippa indica; Dose 3000 g/ha) | weed control effect (activity level), Veronica polita (Veronica polita; Dose 3000 g/ha)

COc1ncccc1-c1nnc(C(F)(F)F)cc1O [Compound 227]
10: weed control effect (activity level), Amaranthus retroflexus (Amaranthus retroflexus; dose 2000 g/ha) | weed control effect (activity level), Chenopodiaceae (Chenopodiaceae; dose 2000 g/ha) | weed control effect (activity level), Rorippa indica (Rorippa indica; dose 2000 g/ha) | weed control effect (activity level), Veronica polita (Veronica polita; dose 2000 g/ha)

O=C(Oc1cc(C(F)(F)F)nnc1-c1ccc(F)cc1)c1ccc2ccccc2c1 [Compound 1-114]
10: weed control effect, Amaranthus retroflexus (activity level) (Amaranthus retroflexus; Dose 3000 g/ha) | weed control effect, Chenopodiaceae (activity level) (Chenopodiaceae; Dose 3000 g/ha) | weed control effect, Rorippa indica (activity level) (Rorippa indica; Dose 3000 g/ha) | weed control effect, Veronica polita (activity level) (Veronica polita; Dose 3000 g/ha)

Oc1cc(C(F)(F)F)nnc1-c1cccc(Cl)c1F [Compound 45]
10: weed control effect (activity level), Amaranthus retroflexus (Amaranthus retroflexus; dose 1000 g/ha) | weed control effect (activity level), Chenopodiaceae (Chenopodiaceae; dose 1000 g/ha) | weed control effect (activity level), Rorippa indica (Rorippa indica; dose 1000 g/ha) | weed control effect (activity level), Veronica polita (Veronica polita; dose 1000 g/ha)

Fc1ccc(-c2nnc(C(F)(F)F)cc2Oc2ccccc2)cc1F [Compound 1-208]
10: weed control effect, Amaranthus retroflexus (activity level) (Amaranthus retroflexus; Dose 3000 g/ha) | weed control effect, Chenopodiaceae (activity level) (Chenopodiaceae; Dose 3000 g/ha) | weed control effect, Rorippa indica (activity level) (Rorippa indica; Dose 3000 g/ha) | weed control effect, Veronica polita (activity level) (Veronica polita; Dose 3000 g/ha)

O=S(=O)(Oc1cc(C(F)(F)F)nnc1-c1ccc(C(F)(F)F)cc1)c1ccc2oncc2c1 [Compound 1-148]
10: weed control effect, Amaranthus retroflexus (activity level) (Amaranthus retroflexus; Dose 3000 g/ha) | weed control effect, Chenopodiaceae (activity level) (Chenopodiaceae; Dose 3000 g/ha) | weed control effect, Rorippa indica (activity level) (Rorippa indica; Dose 3000 g/ha) | weed control effect, Veronica polita (activity level) (Veronica polita; Dose 3000 g/ha)

CCSc1ncccc1C(=O)Oc1cc(C(F)(F)F)nnc1-c1ccc(F)c(F)c1 [Compound 1-113]
10: weed control effect, Amaranthus retroflexus (activity level) (Amaranthus retroflexus; Dose 3000 g/ha) | weed control effect, Chenopodiaceae (activity level) (Chenopodiaceae; Dose 3000 g/ha) | weed control effect, Rorippa indica (activity level) (Rorippa indica; Dose 3000 g/ha) | weed control effect, Veronica polita (activity level) (Veronica polita; Dose 3000 g/ha)

CCCCCCCCSC(=O)Oc1cc(C(F)(F)F)nnc1-c1ccc(F)cc1 [Compound 1-54]
10: weed control effect, Amaranthus retroflexus (activity level) (Amaranthus retroflexus; Dose 3000 g/ha) | weed control effect, Chenopodiaceae (activity level) (Chenopodiaceae; Dose 3000 g/ha) | weed control effect, Rorippa indica (activity level) (Rorippa indica; Dose 3000 g/ha) | weed control effect, Veronica polita (activity level) (Veronica polita; Dose 3000 g/ha)

CCCCCCCCSC(=S)Oc1cc(C(F)(F)F)nnc1-c1ccc(F)c(F)c1 [Compound 1-163]
10: weed control effect, Amaranthus retroflexus (activity level) (Amaranthus retroflexus; Dose 3000 g/ha) | weed control effect, Chenopodiaceae (activity level) (Chenopodiaceae; Dose 3000 g/ha) | weed control effect, Rorippa indica (activity level) (Rorippa indica; Dose 3000 g/ha) | weed control effect, Veronica polita (activity level) (Veronica polita; Dose 3000 g/ha)

O=S(=O)(Oc1cc(C(F)(F)F)nnc1-c1ccc(F)c(Cl)c1)c1ccc(Oc2ccc(F)cc2)cc1 [Compound 1-142]
10: weed control effect, Amaranthus retroflexus (activity level) (Amaranthus retroflexus; Dose 3000 g/ha) | weed control effect, Chenopodiaceae (activity level) (Chenopodiaceae; Dose 3000 g/ha) | weed control effect, Rorippa indica (activity level) (Rorippa indica; Dose 3000 g/ha) | weed control effect, Veronica polita (activity level) (Veronica polita; Dose 3000 g/ha)
